Laboratory results from patent US10174067B2, “Type of cytidine derivative and application thereof” (priority 2014, dated 2019).
Marks after values point to notes of the source that are not given here.

Legend:
[1] = tested on: ICR mice; assay: in vivo; conditions: female ICR mice; single-dose ip
Method: This experiment was to investigate the toxic effects of single-dose intraperitoneal administration on ICR mice and determine the maximum tolerated dose (MTD) of each subject. Maximum tolerated dose (MTD) refers to the dose that may not cause an animal to die, may not cause the animal to suffer weight loss exceeding 10% (compared with Day 0), or may not produce significant side effects.
(§1) The corresponding amount of test substance was taken in a 5 mL glass tube and dissolved in ethanol with a 5 mm magnetic stirrer for stirring. After dissolving completely, Cremophor EL was added with continuous stirring. The marked amount of saline was added and mixed evenly before use. The volume ratio of ethanol, Cremophor EL, and physiological saline was 5:5:90.
Varieties and lines: ICR mice; level: SPF; sex: female.
Method of administration: ip. The dose was reduced in case of animal death, till an animal survived; the dose was increased in case of no animal death; the test was ended when the animals survived normally at the given high dose. Finally, the MTD of the mice on the test substances was determined according to the test results. The animals were observed continuously for 7 days after acute administration.
During the experiment, all animals were under detailed and continuous clinical observation for […], twice a day (10:00 am, 16:00 pm) after administration. The observation included but not limited to: skin, hair, ear, nose, mouth, chest, abdomen, external genitalia, limbs and feet, respiratory and circulatory system, autonomic effects (such as salivation), nervous system (such as tremor, convulsions, stress response and abnormal behavior).
The body of animals was weighed before administration, and then weighed and recorded at the same time each day.
The observation results, animal body weight, and animal survival after one week of administration were recorded in detail every day.

[2] = tested on: HCT-116 colon cancer xenografts; assay: Tumor growth inhibition of HCT-116 colon cancer xenografts in tumor-bearing nude mice (tumor volume, TGI %, RTV, T/C %); format: in vivo, Balb/c Nude mice
Method: 4.1 Tumor cells: colon cancer HCT-116 cells, purchased from the Institute of Cell Biology, Chinese Academy of Sciences. The cells were incubated by F-12 medium (containing 10% FBS) in carbon dioxide incubator at 37° C. and in saturated humidity, with 5% CO2 and 95% air in volume fraction. Before inoculation, the cells at logarithmic phase were taken, and digested with 0.25% trypsin, washed once with PBS and resuspended in PBS for counting. The cells were resuspended in serum-free medium and adjusted to about 3×10^7 cell/mL.
The grouping is as follows:
The formations of tumor at the inoculation site of each group of nude mice were observed. The diameter of tumor nodule (D) was measured three times a week with round hole ruler, and the volume of tumor nodule (V) was calculated according to the following formula: […].
Anti-tumor activity was evaluated by tumor growth inhibition rate TGI (%) and relative tumor proliferation rate T/C (%).
The relative tumor volume (RTV) was calculated as: RTV=Vt/V0, where V0 was the tumor volume when they were grouped and administered, and Vt was the tumor volume at the time of measurement.
The relative proliferation rate T/C (%) was calculated as: […].
TRTV: RTV of the treatment group; CRTV: RTV of the control group.
P<0.05 was considered as significant difference.

[3] = Method: To determine the growth inhibition effect and toxicity of the cytidine derivative samples of the present invention on the transplanted tumor of nude mice bearing colon cancer HCT-116.
as §1
Varieties and lines; Balb/c Nude mice; level: SPF; sex: female.
4.2 Animal inoculation and grouping: Each nude mouse was inoculated subcutaneously with 0.1 mL of cell suspension (3×10^6 cell/mouse) at right side of hind limb in a sterile stale. When the tumor grew to about 60-150 mm^3, the nude mice with similar tumor volume and desirable shape were selected (it would be better to select single spherical shape, no irregular shape or multiple tumors grouped together) for grouping, 6 mice a group. The grouping is as follows:
The control group, namely the model control group, was injected with a mixture of ethanol, Cremophor EL, and saline (5:5:90).
Those mice were weighed three times a week.
All clinical symptoms of each animal should be recorded at the beginning of the test and during the test. The observations should be made at the same time each day.
An animal would be killed by CO2 when its weight loss was more than 20%, when it was about to die, or when its tumor volume exceeded 2800 mm^3. The tumor was separated and weighed, and the animal was autopsied and observed to evaluate and record whether there were pathological changes in the organs.
The data were expressed as Mean±SEM unless specially provided; Non-pairing T test was performed for the data between the two groups. P<0.05 was considered as significant difference.

[4] = Day 0, G3-G9 groups, single IP dose, Mean±SEM
[5] = Day 4, G3-G9 groups, single IP dose, Mean±SEM
[6] = Day 6, G3-G9 groups, single IP dose, Mean±SEM
[7] = Day 8, G3-G9 groups, single IP dose, Mean±SEM
[8] = Day 11, G3-G9 groups, single IP dose, Mean±SEM
[9] = Day 13, G3-G9 groups, single IP dose, Mean±SEM
[10] = Day 15, G3-G9 groups, single IP dose, Mean±SEM
[11] = Day 18, G3-G9 groups, single IP dose, Mean±SEM
[12] = Day 20, G3-G9 groups, single IP dose, Mean±SEM
[13] = Day 22, G3-G9 groups, single IP dose, Mean±SEM

O=C(Nc1ccn([C@@H]2O[C@H](CO)[C@@H](O)C2(F)F)c(=O)n1)OCc1ccc([N+](=O)[O-])cc1 [Compound G5, 4-N-(4-nitrocarboxybenzyl)-2′-deoxy-2′,2′-difluorocytidine]
dose that could be tolerated (maximum tolerated dose, MTD) [1]: 300 mg/kg | Day 0 (RTV) [2, 4]: 1.00 ± 0.00 | Tumor volume, Day 0 [2, 4]: 65.68 ± 20.50** mm^3 | Day 4 (TGI %) ([2]; Day 4, G3-G9 groups, single IP dose): 77.08% | Day 4 (RTV) [2, 5]: 0.89 ± 0.17 | Tumor volume, Day 4 [2, 5]: 61.06 ± 22.28** mm^3 | Day 6 (TGI %) ([2]; Day 6, G3-G9 groups, single IP dose): 90.77% | Day 6 (RTV) [2, 6]: 0.62 ± 0.08 | Tumor volume, Day 6 [2, 6]: 39.01 ± 12.19** mm^3 | Day 8 (TGI %) ([2]; Day 8, G3-G9 groups, single IP dose): 93.03% | Day 8 (RTV) [2, 7]: 0.53 ± 0.06 | Tumor volume, Day 8 [2, 7]: 36.63 ± 13.03** mm^3 | tumor inhibition effect ([2]; Day 8 to Day 13 after single-dose intraperitoneal administration): good tumor inhibition effect | Day 11 (TGI %) ([2]; Day 11, G3-G9 groups, single IP dose): 94.46% | Day 11 (RTV) [2, 8]: 0.60 ± 0.08 | Tumor volume, Day 11 [2, 8]: 44.57 ± 18.01** mm^3 | Day 13 (TGI %) ([2]; Day 13, G3-G9 groups, single IP dose): 93.46% | Day 13 (RTV) [2, 9]: 1.04 ± 0.14 | Tumor volume, Day 13 [2, 9]: 75.90 ± 28.06** mm^3 | Day 15 (TGI %) ([2]; Day 15, G3-G9 groups, single IP dose): 90.78% | Day 15 (RTV) [2, 10]: 1.91 ± 0.35 | Tumor volume, Day 15 [2, 10]: 130.29 ± 45.17** mm^3 | Day 18 (TGI %) ([2]; Day 18, G3-G9 groups, single IP dose): 87.26% | Day 18 (RTV) [2, 11]: 3.76 ± 0.64 | Tumor volume, Day 18 [2, 11]: 235.85 ± 70.86** mm^3 | Day 20 (TGI %) ([2]; Day 20, G3-G9 groups, single IP dose): 80.09% | Day 20 (RTV) [2, 12]: 8.51 ± 3.10 | Tumor volume, Day 20 [2, 12]: 421.94 ± 104.20** mm^3 | Day 22 (TGI %) ([2]; Day 22, G3-G9 groups, single IP dose): 74.55% | Day 22 (RTV) [2, 13]: 13.37 ± 4.65 | Tumor volume, Day 22 [2, 13]: 665.68 ± 158.57** mm^3 | T/C % on Day 22 ([2]; Day 22, G4 350 mg/kg, G5 325 mg/kg, G7 250 mg/kg, single IP): 68.77% | relative tumor volume compared with the model control group ([2]; G4 and G5 Day 4 to Day 18, G7 Day 4 to Day 15 (p<0.05-0.01), G9 only Day 4 (p<0.05)): reduced significantly | maximum value of TGI % ([2]; day of maximum: G3 Day 8, G4 Day 11, G5 Day 11, G9 Day 4, G7 Day 8, single IP): 94.46% | minimum value of T/C % ([2]; day of minimum: G4 Day 13, G5 Day 11, G7 Day 8, single IP): 10.01% | Weight change rate, Day 0 [3, 4]: 0.00 ± 0.00% | Weight of mice, Day 0 [3, 4]: 21.03 ± 0.47 g | weights of animals on Day 4 after administration ([3]; Day 4 (G7: Day 4 and Day 6), p<0.05): significantly reduced | Weight change rate, Day 4 [3, 5]: −8.40 ± 2.65 % | Weight of mice, Day 4 [3, 5]: 19.30 ± 0.85 g | weight loss rate on Day 4 after administration ([3]; Day 4, G4 350 mg/kg, G5 325 mg/kg, G7 250 mg/kg, single IP): less than 10% | Weight change rate, Day 6 [3, 6]: −1.16 ± 2.31% | Weight of mice, Day 6 [3, 6]: 20.82 ± 0.81 g | Weight change rate, Day 8 [3, 7]: 2.81 ± 1.37% | Weight of mice, Day 8 [3, 7]: 21.63 ± 0.62 g | Weight change rate, Day 11 [3, 8]: 4.96 ± 1.42% | Weight of mice, Day 11 [3, 8]: 22.07 ± 0.49 g | Weight change rate, Day 13 [3, 9]: 7.84 ± 1.39 % | Weight of mice, Day 13 [3, 9]: 22.67 ± 0.45 g | Weight change rate, Day 15 [3, 10]: 6.31 ± 1.39 % | Weight of mice, Day 15 [3, 10]: 22.35 ± 0.49 g | Weight change rate, Day 18 [3, 11]: 8.28 ± 1.61 % | Weight of mice, Day 18 [3, 11]: 22.75 ± 0.38 g | Weight change rate, Day 20 [3, 12]: 9.18 ± 1.65 % | Weight of mice, Day 20 [3, 12]: 22.95 ± 0.50 g | Weight change rate, Day 22 [3, 13]: 10.41 ± 2.03% | Weight of mice, Day 22 [3, 13]: 23.20 ± 0.47 g | Day 22 Mortality ([3]; Day 22, single IP dose (mg/kg)): 0% | body weight compared with model control group ([3]; G4 Day 18 to Day 20 (p<0.05), G5 Day 13 to Day 20 (p<0.05~0.01)): significantly increased | clinical symptoms ([3]; after single IP dose, compared with model control group): no significant differences in clinical symptoms
